Source: the supplement of paper PMC13380429

Legend:
[1] = test system: A549-ACE2; test: phospholipidosis EC50; higher = less potent phospholipidosis inducer
[2] = test system: Calu-3; test: drug sensitivity score (DSS) for viability; higher = more toxic; extreme values may be limits of the assay; settings: 72 h
[3] = test system: U2OS; test: as above; settings: 72 h
[4] = test system: Caco-2; test: as above; settings: 72 h
[5] = test system: HepG2; test: as above; settings: 72 h
[6] = test system: Vero E6; test: as above; settings: 72 h
[7] = test system: Calu-3; test: relative viability EC50 (midpoint between 100% and the lowest measured viability); higher = less toxic; settings: 72 h
[8] = test system: Vero E6; test: as above; settings: 72 h
[9] = test system: Calu-3; test: cell viability relative to DMSO; higher = less toxic; settings: 72 h
[10] = test system: U2OS; test: as above; settings: 72 h
[11] = test system: Caco-2; test: as above; settings: 72 h
[12] = test system: HepG2; test: as above; settings: 72 h
[13] = test system: Vero E6; test: as above; settings: 72 h
[14] = test system: A549-ACE2 infected with SARS-CoV-2; test: SARS-CoV-2 infection rate relative to DMSO; higher = more infection; settings: 24 h
[15] = test system: A549-ACE2; test: drug-induced phospholipidosis relative to tamoxifen; higher = more phospholipidosis
[16] = test system: A549-ACE2 infected with SARS-CoV-2; test: cell count relative to DMSO; higher = less toxic; settings: 24 h
[17] = test system: A549-ACE2 infected with SARS-CoV-2; test: morphology score (similarity to uninfected cells); higher = more like uninfected cells; settings: 24 h
[18] = test system: U2OS; test: relative viability EC50 (midpoint between 100% and the lowest measured viability); higher = less toxic; settings: 72 h
[19] = test system: HepG2; test: as above; settings: 72 h

O=[N+]([O-])c1ccccc1S(=O)(=O)NCC1CCC(CNC[C@H]2CCc3ccccc3C2)CC1 (stereo partly specified) [NTNCB]
Settings	SARS-CoV-2 infection rate [%]	cell count [%]	cell viability [%]	morphology score	phospholipidosis EC50 [µM]
[1], 24 h	–	–	–	–	1.46
[1], 48 h	–	–	–	–	3.21
[1], 72 h	–	–	–	–	5.01
[9], 1 nM	–	–	104	–	–
[9], 10 nM	–	–	103	–	–
[9], 100 nM	–	–	96.6	–	–
[9], 1000 nM	–	–	105	–	–
[9], 10000 nM	–	–	15	–	–
[10], 1 nM	–	–	96.2	–	–
[10], 10 nM	–	–	93	–	–
[10], 100 nM	–	–	99.6	–	–
[10], 1000 nM	–	–	94.9	–	–
[10], 10000 nM	–	–	72.5	–	–
[11], 1 nM	–	–	93.7	–	–
[11], 10 nM	–	–	95.2	–	–
[11], 100 nM	–	–	98.8	–	–
[11], 1000 nM	–	–	86.6	–	–
[11], 10000 nM	–	–	64.8	–	–
[12], 1 nM	–	–	99.1	–	–
[12], 10 nM	–	–	96.6	–	–
[12], 100 nM	–	–	91	–	–
[12], 1000 nM	–	–	101	–	–
[12], 10000 nM	–	–	57.1	–	–
[13], 1 nM	–	–	94.9	–	–
[13], 10 nM	–	–	95.3	–	–
[13], 100 nM	–	–	89.8	–	–
[13], 1000 nM	–	–	94.5	–	–
[13], 10000 nM	–	–	79.2	–	–
[14], 0.1 µM	90	–	–	–	–
[14], 0.3 µM	102	–	–	–	–
[14], 1 µM	84	–	–	–	–
[14], 3 µM	36	–	–	–	–
[16], 0.1 µM	–	101	–	–	–
[16], 0.3 µM	–	99	–	–	–
[16], 1 µM	–	103	–	–	–
[16], 3 µM	–	119	–	–	–
[17], 0.1 µM	–	–	–	0.29	–
[17], 0.3 µM	–	–	–	-0.23	–
[17], 1 µM	–	–	–	0.28	–
[17], 3 µM	–	–	–	0.73	–

Settings	drug sensitivity score	relative viability EC50 [µM]
[2]	4.3	–
[3]	1.9	–
[4]	3.3	–
[5]	2.1	–
[6]	0.9	–
[7]	–	3.49
[8]	–	> 10

drug-induced phospholipidosis [%], [15]
Settings	0.3 µM	0.833333 µM	3.33333 µM	6.66667 µM	10 µM	30 µM
24 h	2.25	13.4	66.1	101	91.2	45.6
48 h	4.73	11.2	54.3	93.7	117	42.7
72 h	6.41	10.5	45.9	102	126	–

Cn1cc(-c2ccc3c(c2)CCN3C(=O)Cc2cccc(C(F)(F)F)c2)c2c(N)ncnc21
Settings	drug sensitivity score	relative viability EC50 [µM]
[2]	2.4	–
[3]	1.5	–
[4]	4.7	–
[5]	2.6	–
[6]	1.2	–
[18]	–	> 10
[19]	–	3.28

Settings	SARS-CoV-2 infection rate, [14] [%]	cell count, [16] [%]	cell viability, [9] [%]	cell viability, [10] [%]	cell viability, [11] [%]	cell viability, [12] [%]	cell viability, [13] [%]	morphology score, [17]
1 nM	–	–	106	103	100	87.4	95.3	–
10 nM	–	–	94	97.4	86.6	98.3	94	–
100 nM	–	–	96	102	66.9	84	96.6	–
0.1 µM	102	97	–	–	–	–	–	0.02
0.3 µM	96	104	–	–	–	–	–	0.18
1000 nM	–	–	92.5	95.2	103	101	107	–
1 µM	102	105	–	–	–	–	–	0.12
3 µM	87	112	–	–	–	–	–	0.4
10000 nM	–	–	68.9	77.3	61.6	48.6	67.1	–

drug-induced phospholipidosis [%], [15]
Settings	0.3 µM	0.833333 µM	3.33333 µM	6.66667 µM	10 µM	30 µM
24 h	1.57	0.73	1.92	3.67	12.1	28.6
48 h	3.63	1.52	3.02	3.48	8.65	18.6
72 h	2.2	0.314	1.31	3.34	7.89	22.2
